ChEMBL document CHEMBL1158757, “Ophiocerins A-D and ophioceric acid: tetrahydropyran derivatives and an africane sesquiterpenoid from the freshwater aquatic fungus Ophioceras venezuelense” (J Nat Prod, 2005)
The source made the active and inactive calls.

Columns and labels:
Type in all cases: functional, organism-based
Staphylococcus aureus = experiment: Antibacterial activity against Staphylococcus aureus at 200 ug/disk
Escherichia coli = experiment: Antimicrobial activity against Escherichia coli at 200 ug/disk
Candida albicans = experiment: Antifungal activity against Candida albicans at 200 ug/disk

Measured: Activity

C/C=C\C(=O)O[C@@H]1[C@H](O)[C@@H](O)CO[C@@H]1C
inactive: all assays above

C[C@@H]1C[C@@H](O)[C@H](O)CO1
inactive: all assays above

C[C@@H]1C[C@@H](O)[C@@H](O)CO1
inactive: all assays above

CC1=C2CC(C)(C)C[C@H]3C[C@@]3(C(=O)O)[C@@H]2CC1=O
inactive: all assays above

C[C@@H]1C[C@H](O)[C@@H](O)CO1
inactive: all assays above
